Test results: US4792559A, “1,2,3,4-tetrahydroquinoline substituted 5-aminopentanenitrile compounds and their use as calcium modulators” (ADIR et Compagnie, priority 1985, dated 1988)
Entries after “also recorded” stand apart in the source; their conditions may differ. Where two headings read alike, the source gives them in different places.

Legend:
[1] = system: aorta artery of the rat without endothelium; test: Contraction of rat aorta without endothelium by ionophore calcium A 23187; details: A 23187 at 5.10^-6 M
aorta [2] = test: Isolated rat aorta rings stimulated with noradrenaline (10^-6 M), relaxation; set-up: species or system rat (male Wistar); details: read-out: AORTA St:NA IC50
Experimental: (§1) a. Study of isolated organs removed from rats
(§2) Male Wistar rats weighing from 350 to 400 g are used.
(§3) After rapid sacrifice of the animal, the following are removed:
(§4) the aorta, dissected and prepared in rings; after an equilibration period of 1 hour in the reference physiological solution (1), the prepared specimens are stimulated with a solution rich in potassium (K^+) (100 mM) or with noradrenaline (NA) (10^-6 M).
(§5) The substances to be tested are then added (test sample 0.2 ml) in cumulative doses every 15 minutes.
(§6) The relaxation values obtained permit an activity-dose curve to be constructed, enabling the IC50 to be calculated in M.
(§7) The characteristics of the solutions used are as follows: […]

left auricle (LA) = test: Isolated left auricle, inotropic effect; set-up: species or system rat (male Wistar); details: Rattus norvegicus; stimulated electrically at 3 Hz
Experimental: as §1, §2
(§8) the right auricle (RA) and left auricle (LA) RA beats spontaneously.
LA is stimulated electrically at a rate of 3 Hz (180 beats per min.) (amplitude of the stimulations: threshold×2).
(§9) Stabilisation is obtained in physiological liquid (2) after 30 minutes.
(§10) The substances to be tested are then added (test sample 0.2 ml) in cumulative doses every 15 minutes. The effects on RA are chronotropic. The effects on LA are inotropic. The construction of the activity-dose curves enables the IC50, expressed in M, to be measured.

right auricle (RA) = test: Isolated right auricle, chronotropic effect; set-up: species or system rat (male Wistar); details: Rattus norvegicus
Experimental: as §1, §2, §8, §9, §10

dogs = test: Haemodynamic study in anaesthetised dogs; format: in vivo, mongrel dogs; details: for dP/dt: Left ventricular pressure derivative, variation: measured at 20 minutes; for negative inotropic effect / cardiotropic effect / percentage increase in the PR duration: i.v., compared with Verapamil
Experimental: A haemodynamic study was carried out on mongrel dogs weighing from 25 to 30 kg, which were anaesthetised with sodium pentobarbital in a dose of 30 mg/kg i.v., intubated and ventilated, and subjected to a thoracotomy at the 5th left intercostal space.
The left and aortal ventricular pressures are measured by means of MILLAR probes introduced by the femoral artery route. The cardiac frequency is measured by Biotach Gould ECG (derivation D2); the gases of the aortal blood and of the coronary sinus are analysed by an ABL3 radiometer.
The products tested were injected by the femoral vein route.

aorta [3] = test: Isolated rat aorta rings stimulated with potassium-rich solution (K+ 100 mM), relaxation; set-up: species or system rat (male Wistar); details: aorta rings stimulated with K+ 100 mM, read-out: AORTA St:K+ IC50
Experimental: as §1, §2, §3, §4, §5, §6, §7

left auricle / aorta = test: Evaluation of myocardium/vessel selectivity (IC50 LA/IC50 aorta); set-up: species or system rat (male Wistar); details: for LA/AORTA SELECTIVITY (St:K+): IC50 LA/IC50 aorta, high values indicate vascular selectivity
Text: c. Evaluation of myocardium/vessel selectivity
The IC50 LA/IC50 aorta ratio leads to a first evaluation; the high values indicate vascular selectivity.

calmodulin = calmodulin (Homo sapiens, UniProt P0DP23); test: Calcium calmodulin binding, fluorescence of dansylated calmodulin; details: for Kd/IC50 AORTA K+: close to 1 indicates vascular inhibition through calmodulin; for Kd: extrapolated to 0 calmodulin, read-out: Kd (cam); for mechanism indicated by the pharmacological effects: in vitro
Experimental: b. Fixation on calcium calmodulin binding
The orientations of synthesis which may lead to possibilities of inhibiting calmodulin are evaluated by measuring the fluorescence of dansylated calmodulin.
The substances to be tested are added to the experimental vessel (2 ml). The increase in fluorescence of dansylated calmodulin enables effect-dose curves to be constructed; measuring the EC50 gives an apparent Kd value. After extrapolation of the apparent Kd values to 0 calmodulin, the experiments carried out for different calcium-calmodulin concentration values enable the characteristic Kd values of the tested substances to be determined (Method proposed by Johnson and Wittenauer, 1983, Biochem., 211, 473-479).
d. Evaluation of the possibility of inhibition at the calmodulin level

[4] = target: T1, Ca++ channels of membranes of transverse tubules in skeletal muscle (Homo sapiens, UniProt Q13698); test: Binding on Ca++ channels of membranes of transverse tubules in skeletal muscle
T1 construct: membranes of transverse tubules in skeletal muscle; from tissue; host or cells: skeletal muscle, transverse tubule membranes
T1 sequence (Q13698 whole entry): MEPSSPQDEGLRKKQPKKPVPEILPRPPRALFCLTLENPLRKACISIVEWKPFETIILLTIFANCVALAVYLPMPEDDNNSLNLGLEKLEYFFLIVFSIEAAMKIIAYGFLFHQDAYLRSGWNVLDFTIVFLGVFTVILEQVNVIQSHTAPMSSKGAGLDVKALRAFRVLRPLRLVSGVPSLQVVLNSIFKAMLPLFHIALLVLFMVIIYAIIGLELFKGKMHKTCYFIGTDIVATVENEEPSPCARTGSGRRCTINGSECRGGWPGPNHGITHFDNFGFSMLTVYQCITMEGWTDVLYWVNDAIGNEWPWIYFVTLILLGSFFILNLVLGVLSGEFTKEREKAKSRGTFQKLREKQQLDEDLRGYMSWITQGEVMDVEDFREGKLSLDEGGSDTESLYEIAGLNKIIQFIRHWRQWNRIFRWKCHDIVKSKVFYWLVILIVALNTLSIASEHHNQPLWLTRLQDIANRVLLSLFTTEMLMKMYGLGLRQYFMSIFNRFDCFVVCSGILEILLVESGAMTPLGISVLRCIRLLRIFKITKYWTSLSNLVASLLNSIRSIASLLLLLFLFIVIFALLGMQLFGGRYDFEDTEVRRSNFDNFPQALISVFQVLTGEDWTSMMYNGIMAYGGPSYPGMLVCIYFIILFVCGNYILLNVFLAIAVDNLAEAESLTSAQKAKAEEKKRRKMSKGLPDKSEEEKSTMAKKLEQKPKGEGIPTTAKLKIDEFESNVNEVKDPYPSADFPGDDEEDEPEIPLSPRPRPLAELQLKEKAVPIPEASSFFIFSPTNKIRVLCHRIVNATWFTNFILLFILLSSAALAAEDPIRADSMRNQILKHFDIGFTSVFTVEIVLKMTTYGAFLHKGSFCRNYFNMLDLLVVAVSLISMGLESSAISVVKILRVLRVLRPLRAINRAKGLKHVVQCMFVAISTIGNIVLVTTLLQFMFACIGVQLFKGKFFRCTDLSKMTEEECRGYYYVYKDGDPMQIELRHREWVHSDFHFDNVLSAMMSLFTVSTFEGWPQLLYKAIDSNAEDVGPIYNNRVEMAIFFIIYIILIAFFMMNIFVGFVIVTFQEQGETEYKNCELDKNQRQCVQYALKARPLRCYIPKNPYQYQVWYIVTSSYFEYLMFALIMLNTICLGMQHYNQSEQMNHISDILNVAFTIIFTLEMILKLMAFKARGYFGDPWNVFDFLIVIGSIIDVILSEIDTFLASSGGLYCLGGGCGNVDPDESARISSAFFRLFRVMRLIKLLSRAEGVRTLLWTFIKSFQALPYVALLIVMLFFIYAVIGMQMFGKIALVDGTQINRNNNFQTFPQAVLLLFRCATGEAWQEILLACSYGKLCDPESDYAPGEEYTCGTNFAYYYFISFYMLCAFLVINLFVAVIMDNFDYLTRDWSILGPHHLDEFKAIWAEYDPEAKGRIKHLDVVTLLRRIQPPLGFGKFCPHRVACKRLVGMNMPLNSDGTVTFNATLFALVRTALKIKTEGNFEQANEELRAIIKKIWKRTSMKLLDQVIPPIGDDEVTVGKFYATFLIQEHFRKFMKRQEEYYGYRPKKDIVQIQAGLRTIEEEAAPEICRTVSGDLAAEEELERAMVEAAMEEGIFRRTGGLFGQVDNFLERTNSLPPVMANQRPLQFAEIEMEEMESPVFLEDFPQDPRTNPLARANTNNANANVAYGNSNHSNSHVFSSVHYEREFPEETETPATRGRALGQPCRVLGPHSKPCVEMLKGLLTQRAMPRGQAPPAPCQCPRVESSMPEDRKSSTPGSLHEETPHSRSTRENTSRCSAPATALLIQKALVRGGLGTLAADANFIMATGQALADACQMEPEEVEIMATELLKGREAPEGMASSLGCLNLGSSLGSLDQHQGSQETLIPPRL
T1 sequence (P54289 25-944 partner limits assumed): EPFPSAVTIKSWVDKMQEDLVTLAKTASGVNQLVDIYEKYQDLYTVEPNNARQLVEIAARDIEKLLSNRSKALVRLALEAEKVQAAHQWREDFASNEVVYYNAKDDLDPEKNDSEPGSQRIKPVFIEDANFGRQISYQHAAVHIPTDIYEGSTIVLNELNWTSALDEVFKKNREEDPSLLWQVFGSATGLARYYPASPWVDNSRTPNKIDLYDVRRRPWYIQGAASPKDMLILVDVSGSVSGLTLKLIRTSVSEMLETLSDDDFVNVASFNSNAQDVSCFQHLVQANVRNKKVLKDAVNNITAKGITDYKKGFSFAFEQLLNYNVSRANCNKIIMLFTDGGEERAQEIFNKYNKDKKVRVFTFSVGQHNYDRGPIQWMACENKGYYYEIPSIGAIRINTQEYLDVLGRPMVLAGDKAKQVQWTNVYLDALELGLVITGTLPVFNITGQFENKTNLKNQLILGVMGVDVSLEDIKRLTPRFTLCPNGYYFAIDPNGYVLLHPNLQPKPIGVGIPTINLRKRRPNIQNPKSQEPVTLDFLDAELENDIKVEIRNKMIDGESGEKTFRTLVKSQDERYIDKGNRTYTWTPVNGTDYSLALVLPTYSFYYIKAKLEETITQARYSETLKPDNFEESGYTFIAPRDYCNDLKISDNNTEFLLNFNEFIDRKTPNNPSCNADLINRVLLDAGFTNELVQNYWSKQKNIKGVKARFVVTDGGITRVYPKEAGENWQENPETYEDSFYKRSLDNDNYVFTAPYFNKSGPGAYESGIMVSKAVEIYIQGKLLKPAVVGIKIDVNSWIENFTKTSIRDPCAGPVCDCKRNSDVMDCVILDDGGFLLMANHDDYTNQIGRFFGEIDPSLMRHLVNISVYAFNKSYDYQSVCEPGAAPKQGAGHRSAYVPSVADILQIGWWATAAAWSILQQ
T1 sequence (P54289 945-1103 partner limits assumed): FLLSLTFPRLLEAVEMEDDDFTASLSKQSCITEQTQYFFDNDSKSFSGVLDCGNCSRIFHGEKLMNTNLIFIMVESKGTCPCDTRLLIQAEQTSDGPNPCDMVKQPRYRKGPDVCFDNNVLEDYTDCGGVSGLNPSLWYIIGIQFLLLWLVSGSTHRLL
T1 sequence (Q02641 whole entry partner): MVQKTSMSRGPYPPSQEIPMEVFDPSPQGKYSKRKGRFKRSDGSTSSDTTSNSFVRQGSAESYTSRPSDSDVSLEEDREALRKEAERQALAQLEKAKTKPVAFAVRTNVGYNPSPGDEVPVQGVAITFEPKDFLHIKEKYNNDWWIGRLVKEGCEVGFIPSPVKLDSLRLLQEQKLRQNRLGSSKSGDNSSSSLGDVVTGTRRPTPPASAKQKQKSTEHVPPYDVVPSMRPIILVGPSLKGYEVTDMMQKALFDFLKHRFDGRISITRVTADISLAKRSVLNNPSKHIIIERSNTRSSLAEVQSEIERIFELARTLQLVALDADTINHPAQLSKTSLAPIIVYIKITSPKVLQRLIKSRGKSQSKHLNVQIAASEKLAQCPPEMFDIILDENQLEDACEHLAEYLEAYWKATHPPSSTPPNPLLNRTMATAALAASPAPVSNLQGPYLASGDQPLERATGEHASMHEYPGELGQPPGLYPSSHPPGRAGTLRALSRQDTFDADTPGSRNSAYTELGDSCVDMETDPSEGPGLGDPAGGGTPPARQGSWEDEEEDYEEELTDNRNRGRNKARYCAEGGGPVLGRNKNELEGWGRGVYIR
T1 sequence (Q06432 whole entry partner): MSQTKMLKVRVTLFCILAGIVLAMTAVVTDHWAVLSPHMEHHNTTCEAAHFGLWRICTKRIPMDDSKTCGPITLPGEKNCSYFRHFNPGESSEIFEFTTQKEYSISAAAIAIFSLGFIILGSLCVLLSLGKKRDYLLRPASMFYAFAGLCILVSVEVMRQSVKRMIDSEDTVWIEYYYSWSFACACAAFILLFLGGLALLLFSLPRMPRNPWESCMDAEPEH
Text: (§11) C. Binding on Ca^++ channels of membranes of transverse tubules in skeletal muscle.

[5] = target: T2, Ca++ channels of membranes of transverse tubules in skeletal muscle; test: as above; details: transverse tubules in skeletal muscle; read-out: Kd for the Ca++ channel
T2 construct: membranes of transverse tubules in skeletal muscle; from tissue; host or cells: skeletal muscle, transverse tubule membranes
T2 sequence (Q13698 whole entry): as the sequence (Q13698 whole entry) above
T2 sequence (P54289 25-944 partner limits assumed): as the sequence (P54289 25-944 partner limits assumed) above
T2 sequence (P54289 945-1103 partner limits assumed): as the sequence (P54289 945-1103 partner limits assumed) above
T2 sequence (Q02641 whole entry partner): as the sequence (Q02641 whole entry partner) above
T2 sequence (Q06432 whole entry partner): as the sequence (Q06432 whole entry partner) above
Text: as §11

[6] = spontaneously beating, read-out: RIGHT AURICLE (RA) (CHRONOTROPIC EFFECT) IC50

IC50 (aorta [2]) [µM]	IC50 (left auricle (LA)) [µM]	IC50 (aorta [3]; Rattus norvegicus) [µM]	Kd/IC50 AORTA K+ (calmodulin)	Kd (calmodulin) [µM]	IC50 (right auricle (RA); [6]) [µM]	SMILES	AAP: Average arterial pressure, maximum variation (dogs; IV 100 μg/kg) [%]	ACF: Average coronary flow, maximum variation (dogs; IV 100 μg/kg)	CF: Cardiac frequency, maximum variation (dogs; IV 100 μg/kg) [%]	PO2 SC: PO2 coronary blood sinus, maximum variation (dogs; IV 100 μg/kg)	PR: PR space of the ECG, maximum variation (dogs; IV 100 μg/kg)	dP/dt: Left ventricular pressure derivative, variation (dogs; IV 100 μg/kg) [%]	AAP: Average arterial pressure, maximum variation (dogs; IV 300 μg/kg) [%]	ACF: Average coronary flow, maximum variation (dogs; IV 300 μg/kg)	CF: Cardiac frequency, maximum variation (dogs; IV 300 μg/kg) [%]	PO2 SC: PO2 coronary blood sinus, maximum variation (dogs; IV 300 μg/kg)	PR: PR space of the ECG, maximum variation (dogs; IV 300 μg/kg)	dP/dt: Left ventricular pressure derivative, variation (dogs; IV 300 μg/kg) [%]	LA/AORTA SELECTIVITY (St:K+) (left auricle / aorta)	I/C: Myocardial O2 intake/consumption ratio, maximum variation (dogs; IV 300 μg/kg)	further results
30	5.2	0.25	97	34	1	COc1cccc(C(C#N)(CCCN(C)CCc2ccc(OC)c3c2CCCN3C(C)=O)C(C)C)c1 (centres unmarked) [Example 13, 2-(3-methoxyphenyl)-2-isopropyl-5-{N-[(1-acetyl-8-methoxy-1,2,3,4-tetrahydroquinol-5-yl)ethyl]-N-methyl-amino}-pentanenitrile]	-10	+42%	-11	+40%	+10%	0	-23	–	-15	+59%	+32%	-6	20	+99%	I/C: Myocardial O2 intake/consumption ratio, maximum variation (dogs; IV 100 μg/kg): +45%
13	8	0.6	10.8	6.5	1.5	COc1ccc(C(C#N)(CCCN(C)CCc2ccc(OC)c3c2CCCN3C(C)=O)C(C)C)cc1OC (centres unmarked) [Example 4, 2-(3,4-dimethoxyphenyl)-2-isopropyl-5-{N-[(1-acetyl-8-methoxy-1,2,3,4-tetrahydroquinol-5-yl)ethyl]-N-methyl-amino}-pentanenitrile]	–	–	–	–	–	–	-14	+84%	-17	+47%	+27%	-2	13	+83%	–
3	5.5	0.36	0.66	0.24	2.9	COc1ccc(C(C#N)(CCCN(C)CCc2ccc(OC)c3c2CCCN3C(C)=O)Sc2ccccc2)cc1OC (centres unmarked) [Example 7, 2-(3,4-dimethoxyphenyl)-2-phenylthio-5-{N-[(1-acetyl-8-methoxy-1,2,3,4-tetrahydroquinol-5-yl)ethyl]-N-methyl-amino}-pentanenitrile]	–	–	–	–	–	–	-16	+77%	-7	+36%	+15%	0	15	+52%	mechanism indicated by the pharmacological effects (calmodulin): intracellular inhibitory mechanisms and, especially, a calcium-calmodulin inhibition mechanism; AAP: Average arterial pressure, maximum variation (dogs; IV 1000 μg/kg): -36%; ACF: Average coronary flow, maximum variation (dogs; IV 1000 μg/kg): +132%; CF: Cardiac frequency, maximum variation (dogs; IV 1000 μg/kg): -11%; I/C: Myocardial O2 intake/consumption ratio, maximum variation (dogs; IV 1000 μg/kg): +107%; PO2 SC: PO2 coronary blood sinus, maximum variation (dogs; IV 1000 μg/kg): +49%; PR: PR space of the ECG, maximum variation (dogs; IV 1000 μg/kg): +37%; dP/dt: Left ventricular pressure derivative, variation (dogs; IV 1000 μg/kg): -3%; negative inotropic effect / cardiotropic effect (dogs): absence of a negative inotropic effect; percentage increase in the PR duration (dogs): reduction in the percentage increase in the PR duration
5.5	82	0.75	1.08	0.81	10	COc1cccc(C(C#N)(CCCN(C)CCc2ccc(OC)c3c2CCCN3C(C)=O)Sc2ccccc2)c1 (centres unmarked) [Example 1, 2-(3-methoxyphenyl)-2-phenylthio-5-{N-[(1-acetyl-8-methoxy-1,2,3,4-tetrahydroquinol-5-yl)ethyl]-N-methylamino}-pentanenitrile]	-9	+109%	-10	+36%	+7%	0	-24	+117%	-14	+63%	+19%	-3	100	+118%	vascular selectivity (left auricle / aorta; compared with verapamil): this selectivity is greatest; also recorded: a greater selectivity in favour of vessels; IC50 ([1]; Rattus norvegicus): ~1 µM; affinity for calmodulin (calmodulin): an affinity for calmodulin coherent with the biological effect; mechanism indicated by the pharmacological effects (calmodulin): intracellular inhibitory mechanisms and, especially, a calcium-calmodulin inhibition mechanism; AAP: Average arterial pressure, maximum variation (dogs; IV 30 μg/kg): 0%; ACF: Average coronary flow, maximum variation (dogs; IV 30 μg/kg): +54%; CF: Cardiac frequency, maximum variation (dogs; IV 30 μg/kg): -5%; I/C: Myocardial O2 intake/consumption ratio, maximum variation (dogs; IV 30 μg/kg): +19%; PO2 SC: PO2 coronary blood sinus, maximum variation (dogs; IV 30 μg/kg): +14%; PR: PR space of the ECG, maximum variation (dogs; IV 30 μg/kg): 0%; I/C: Myocardial O2 intake/consumption ratio, maximum variation (dogs; IV 100 μg/kg): +55%; negative inotropic effect / cardiotropic effect (dogs): absence of a negative inotropic effect; percentage increase in the PR duration (dogs): reduction in the percentage increase in the PR duration; IC50 (aorta [3]): 0.6 µM; affinity for calcium channels relative to verapamil [4]: ~20 times the one of verapamil; Kd [5]: 0.001 µM

SMILES	IC50 (aorta [2]) [µM]	IC50 (left auricle (LA)) [µM]	IC50 (aorta [3]; Rattus norvegicus) [µM]	Kd/IC50 AORTA K+ (calmodulin)	Kd (calmodulin) [µM]	IC50 (right auricle (RA); [6]) [µM]	AAP: Average arterial pressure, maximum variation (dogs; IV 100 μg/kg) [%]	ACF: Average coronary flow, maximum variation (dogs; IV 100 μg/kg)	CF: Cardiac frequency, maximum variation (dogs; IV 100 μg/kg) [%]	PO2 SC: PO2 coronary blood sinus, maximum variation (dogs; IV 100 μg/kg)	PR: PR space of the ECG, maximum variation (dogs; IV 100 μg/kg)	dP/dt: Left ventricular pressure derivative, variation (dogs; IV 100 μg/kg) [%]	AAP: Average arterial pressure, maximum variation (dogs; IV 300 μg/kg) [%]	ACF: Average coronary flow, maximum variation (dogs; IV 300 μg/kg)	CF: Cardiac frequency, maximum variation (dogs; IV 300 μg/kg) [%]	PO2 SC: PO2 coronary blood sinus, maximum variation (dogs; IV 300 μg/kg)	PR: PR space of the ECG, maximum variation (dogs; IV 300 μg/kg)	dP/dt: Left ventricular pressure derivative, variation (dogs; IV 300 μg/kg) [%]	LA/AORTA SELECTIVITY (St:K+) (left auricle / aorta)	I/C: Myocardial O2 intake/consumption ratio, maximum variation (dogs; IV 300 μg/kg)	further results
COc1ccc(CCN(C)CCCC(C#N)(c2ccc(OC)c(OC)c2)C(C)C)cc1OC (centres unmarked) [Verapamil, verapamil, reference compound]	14	2	0.8	–	–	–	-16	+87%	-9	+42%	+14%	-5	-21	+99%	-8	+71%	+40%	-13	–	–	activity on contraction by ionophore calcium A 23187 [1]: inactive; IC50 (right auricle (RA); read-out: RIGHT AURICLE (RA) (CH[…]) IC50): 2 µM; AAP: Average arterial pressure, maximum variation (dogs; IV 30 μg/kg): -5%; ACF: Average coronary flow, maximum variation (dogs; IV 30 μg/kg): +32%; CF: Cardiac frequency, maximum variation (dogs; IV 30 μg/kg): -4%; PO2 SC: PO2 coronary blood sinus, maximum variation (dogs; IV 30 μg/kg): +18%; PR: PR space of the ECG, maximum variation (dogs; IV 30 μg/kg): +6%
